In patent publication US10913773B2, “Bicyclic peptidyl inhibitor of tumor necrosis factor-alpha” (Ohio State Innovation Foundation, priority 2016, dated 2021):

Experiments:
TNFα = target: T1, TNFα (Homo sapiens, UniProt P01375); test: Fluorescence anisotropy (FA) binding of fluorescently labeled bicyclic peptides to TNFα; conditions: labeled at free N-terminal amine with 6-carboxyfluorescein
T1 construct: ybbR tag (13 aa) (N); made in house; host or cells: Escherichia coli
Protocol: FITC-labeled bicyclic peptide (50 or 100 nM) were incubated with varying concentrations of TNFα (0-5 μM) in 30 mM HEPES, pH 7.4, 150 mM NaCl, and 2 mM magnesium acetate for 2 h. The FA values were measured on a Molecular Devices Spectramax M5 spectrofluorimeter, with excitation and emission wavelengths at 485 and 525 nm, respectively. Equilibrium dissociation constants (KD) were determined by plotting the FA values as a function of TNFα concentration and fitting the data to the following equation
[formula] where Y is the measured anisotropy at a given TNFα concentration x; L is the bicyclic peptide concentration; Qb/Qf is the correction fact for dye-protein interaction; Amax is the maximum anisotropy when all the peptides are bound to TNFα, while Amin is the minimum anisotropy. Competition experiments were performed by incubating 100 nM Asn-Asn-Asn-Lys(FITC)-labeled anticachexin C1 (Table 1), 2 μM of TNFα, and varying concentrations of unlabeled competitor peptide (0-20 μM) in the above buffer for 2 h. The FA values were plotted against the competitor peptide concentration to determine the IC50 values.
To identify residues significant for TNFα binding, each residue of anticachexin C1 (other than D-alanine at position-3, L-lysine at position-4, and L-2,3-diaminopropionic acid (Dap) at position-10) was individually replaced with an alanine (or D-alanine). To facilitate binding analysis by fluorescence anisotropy (FA), a tetrapeptide NNNK (SEQ ID NO: 1) was added to the C-terminus of each bicyclic peptide and the lysine side chain was labeled with fluorescein isothiocyanate (FITC) during solid-phase synthesis (Scheme 1). The three asparagine residues were added to improve the aqueous solubility of the bicyclic peptides. The bicyclic peptide was prepared by first synthesizing the full-length linear sequence on Rink amide resin using standard Fmoc/HBTU chemistry. The side chains of the two internal cyclization residues, L-lysine and Dap, were protected with monomethoxytrityl (Mmt) groups, whereas the C-terminal lysine was protected with an allyloxycarbonyl (Alloc) group. After removal of the N-terminal Fmoc group, a trimesic acid was coupled to the N-terminal amine using HBTU as the coupling agent. Next, the Mmt groups were selectively removed from the Lys and Dap side chains by 2% TFA and the peptide was cyclized by treatment with (benzotriazol-1-yloxy)tripyrrolidinophosphonium hexafluorophosphate (PyBOP). The Alloc group on the C-terminal lysine side chain was removed by treatment with Pd(PPh3)4 and the bicyclic peptide was selectively labeled at the C-terminal lysine by treating the resin with FITC. […] On the other hand, phenylglycine (Phg)-1 and glycine-7 play more minor roles in binding.

[1] = tested on: TNFα-induced JNK phosphorylation; test: Immunoblot of TNFα-induced JNK phosphorylation in WEHI-13VAR cells; assay type: cell-based; conditions: TNFα with increasing peptide concentrations (0-20 μM); total JNK unchanged
Protocol: WEHI-13VAR cells were cultured in full growth media (RPMI, 5% FBS, 1% Pen/Strep) in 12-well plates to reach 80% confluence. TNFα (5 ng/mL final concentration) and varying concentrations of peptide inhibitor (0-6 μM) were pre-incubated in 0.5 mL of the growth medium for 30 min in the CO2 incubator. The mixture was then used to treat the cells at 37° C. and in the presence of 5% CO2. After 1.5 h, the solution was removed and the cells were washed with cold DPBS twice. The cells were lysed in 50 μL of lysis buffer (50 mM Tris, pH 7.4, 150 mM NaCl, 1% NP-40, and 5% glycerol) containing a protease inhibitor cocktail (Complete mini, Roche, product number 04693159001) and a phosphatase inhibitor cocktail (PhosSTOP, Roche, product number 04906845001). After incubation on ice for 30 min, the cell lysate was centrifuged at 15,000 rpm for 10 min in a microcentrifuge. An equal volume of 2×SDS-loading buffer was added to the supernatant. The total cellular proteins were separated by SDS-PAGE and transferred electrophoretically to a nitrocellulose membrane, which was subsequently immunoblotted using anti-JNK and anti-p-JNK Thr183/Tyr185 antibodies (both from Santa Cruz Biotechnology). The same samples were also separated on a different SDS-PAGE gel and stained by Coomassie brilliant blue to check the sample loading in all lanes. […]

[2] = tested on: murine TNFα-induced cell death in WEHI-13VAR fibroblasts; test: MTT assay: protection of WEHI-13VAR fibroblasts against murine TNFα-induced cell death; assay type: cell-based; conditions: murine TNFα with 10 μM peptide; no inhibitor 10 ng/mL
Protocol: WEHI-13VAR fibroblasts were purchased from American Type Culture Collection (ATCC). For maintenance, cells were grown in full medium as RPMI-1640 supplemented with 10% FBS and 1% Abs. For toxicity assay, cells were seeded in a 96-well plate at a density of 5×10^3 cells/well in 100 μL of RPMI-1640/1% Abs supplemented with 10% or 5% FBS and allowed to grow overnight. Varying concentrations of recombinant human TNFα (0-250 ng/mL) or commercial mouse TNFα were (0-100 pg/mL) were incubated with 10 μM peptide and actinomycin D (1 μg/mL) in 100 μL of corresponding growth medium for 1 h at 37° C. Next, the medium in the 96-well plate was removed and replaced with the above fresh mixture and the cells were incubated overnight. Next day, 10 μL of the 3-(4, 5-dimethylthiazolyl-2)-2, 5-diphenyltetrazolium bromide (MTT, final concentration 0.5 mg/ml) was added to each well and incubated at 37° C. for 3 h, following by the addition of 100 μL of the MTT solubilization solution. The plate was kept in the incubator overnight to let the formazan crystals to completely dissolve, and the absorbance at 570 nm was measured on a TECAN plate reader. The LD50 was obtained as plotting the viability as a function of the TNFα concentration.
TNFα inhibitor C1-74-2 was tested for its inhibitory activity against murine TNFα, a necessary step before testing C1-74-2 in a mouse model of inflammatory bowel disease.

Question: For CC(=O)[C@@H]1CCCN(C(=O)[C@@H](Cc2c[nH]cn2)NC(=O)C(N)C(C)C)C1 (stereo partly drawn) [Compound C1-74-2], which Kd (TNFα) is on record?
Answer: 40 ± 7 nM

Question: And the p-JNK level [1]?
Answer: decreased with the C1-74-2 concentration

Question: What about the “LD50 value of TNFα” value [2] of the same compound?
Answer: 31 ng/mL
